One assay deals with human LRRK2 kinase (Homo sapiens, UniProt Q5S007). Particulars: LRRK2, ADP-Glo, ATP 10 μM, 60 minutes at 25° C.
A further assay concerns the target T1, wild-type LRKK2 (Mus musculus, UniProt Q5S006).
T1 construct: endogenous in cells; host or cells: NIH-3T3
Put plainly: LRRK2 immunoblot, phosphorylation of Ser935, NIH-3T3 cell lysates. Format: cell-based. Particulars: FIG. 1. On the procedure: Cell lysates were extracted from the NIH-3T3 cell pellet using lysis buffer (40 mM Tris-HCl pH 8.0, 120 mM NaCl, 0.10% Nonidet™-P40) supplemented with protease inhibitors. Proteins in whole-cell lysates were separated by SDS-PAGE and transferred to an Amersham™ nitrocellulose membrane (Amersham, UK). Nitrocellulose membranes were blocked with 5% skim milk in phosphate-buffered saline containing Tween 20 and incubated with primary antibodies overnight at 4° C. The blots were then incubated with the appropriate horseradish peroxidase (HRP)-conjugated secondary antibodies and proteins were visualized by enhanced chemiluminescence, according to the manufacturer's protocol (Amersham™ Western blotting). Secondary antibodies, anti-rabbit IgG-HRP were purchased from Cell Signaling technology. Immunoblot film were scanned on a LAS500 scanner, and images were managed with Adobe Photoshop
(In general: In western blotting, separated proteins are transferred to a membrane and probed.)

The record followed here is patent publication US12479847B2 (DANA-FARBER CANCER INSTITUTE, INC., priority 2019, dated 2025).

As a reminder, the IC50 is the concentration that gives 50% inhibition. Higher therefore signals weaker potency.

Sequence of human LRRK2 kinase (Q5S007 whole entry): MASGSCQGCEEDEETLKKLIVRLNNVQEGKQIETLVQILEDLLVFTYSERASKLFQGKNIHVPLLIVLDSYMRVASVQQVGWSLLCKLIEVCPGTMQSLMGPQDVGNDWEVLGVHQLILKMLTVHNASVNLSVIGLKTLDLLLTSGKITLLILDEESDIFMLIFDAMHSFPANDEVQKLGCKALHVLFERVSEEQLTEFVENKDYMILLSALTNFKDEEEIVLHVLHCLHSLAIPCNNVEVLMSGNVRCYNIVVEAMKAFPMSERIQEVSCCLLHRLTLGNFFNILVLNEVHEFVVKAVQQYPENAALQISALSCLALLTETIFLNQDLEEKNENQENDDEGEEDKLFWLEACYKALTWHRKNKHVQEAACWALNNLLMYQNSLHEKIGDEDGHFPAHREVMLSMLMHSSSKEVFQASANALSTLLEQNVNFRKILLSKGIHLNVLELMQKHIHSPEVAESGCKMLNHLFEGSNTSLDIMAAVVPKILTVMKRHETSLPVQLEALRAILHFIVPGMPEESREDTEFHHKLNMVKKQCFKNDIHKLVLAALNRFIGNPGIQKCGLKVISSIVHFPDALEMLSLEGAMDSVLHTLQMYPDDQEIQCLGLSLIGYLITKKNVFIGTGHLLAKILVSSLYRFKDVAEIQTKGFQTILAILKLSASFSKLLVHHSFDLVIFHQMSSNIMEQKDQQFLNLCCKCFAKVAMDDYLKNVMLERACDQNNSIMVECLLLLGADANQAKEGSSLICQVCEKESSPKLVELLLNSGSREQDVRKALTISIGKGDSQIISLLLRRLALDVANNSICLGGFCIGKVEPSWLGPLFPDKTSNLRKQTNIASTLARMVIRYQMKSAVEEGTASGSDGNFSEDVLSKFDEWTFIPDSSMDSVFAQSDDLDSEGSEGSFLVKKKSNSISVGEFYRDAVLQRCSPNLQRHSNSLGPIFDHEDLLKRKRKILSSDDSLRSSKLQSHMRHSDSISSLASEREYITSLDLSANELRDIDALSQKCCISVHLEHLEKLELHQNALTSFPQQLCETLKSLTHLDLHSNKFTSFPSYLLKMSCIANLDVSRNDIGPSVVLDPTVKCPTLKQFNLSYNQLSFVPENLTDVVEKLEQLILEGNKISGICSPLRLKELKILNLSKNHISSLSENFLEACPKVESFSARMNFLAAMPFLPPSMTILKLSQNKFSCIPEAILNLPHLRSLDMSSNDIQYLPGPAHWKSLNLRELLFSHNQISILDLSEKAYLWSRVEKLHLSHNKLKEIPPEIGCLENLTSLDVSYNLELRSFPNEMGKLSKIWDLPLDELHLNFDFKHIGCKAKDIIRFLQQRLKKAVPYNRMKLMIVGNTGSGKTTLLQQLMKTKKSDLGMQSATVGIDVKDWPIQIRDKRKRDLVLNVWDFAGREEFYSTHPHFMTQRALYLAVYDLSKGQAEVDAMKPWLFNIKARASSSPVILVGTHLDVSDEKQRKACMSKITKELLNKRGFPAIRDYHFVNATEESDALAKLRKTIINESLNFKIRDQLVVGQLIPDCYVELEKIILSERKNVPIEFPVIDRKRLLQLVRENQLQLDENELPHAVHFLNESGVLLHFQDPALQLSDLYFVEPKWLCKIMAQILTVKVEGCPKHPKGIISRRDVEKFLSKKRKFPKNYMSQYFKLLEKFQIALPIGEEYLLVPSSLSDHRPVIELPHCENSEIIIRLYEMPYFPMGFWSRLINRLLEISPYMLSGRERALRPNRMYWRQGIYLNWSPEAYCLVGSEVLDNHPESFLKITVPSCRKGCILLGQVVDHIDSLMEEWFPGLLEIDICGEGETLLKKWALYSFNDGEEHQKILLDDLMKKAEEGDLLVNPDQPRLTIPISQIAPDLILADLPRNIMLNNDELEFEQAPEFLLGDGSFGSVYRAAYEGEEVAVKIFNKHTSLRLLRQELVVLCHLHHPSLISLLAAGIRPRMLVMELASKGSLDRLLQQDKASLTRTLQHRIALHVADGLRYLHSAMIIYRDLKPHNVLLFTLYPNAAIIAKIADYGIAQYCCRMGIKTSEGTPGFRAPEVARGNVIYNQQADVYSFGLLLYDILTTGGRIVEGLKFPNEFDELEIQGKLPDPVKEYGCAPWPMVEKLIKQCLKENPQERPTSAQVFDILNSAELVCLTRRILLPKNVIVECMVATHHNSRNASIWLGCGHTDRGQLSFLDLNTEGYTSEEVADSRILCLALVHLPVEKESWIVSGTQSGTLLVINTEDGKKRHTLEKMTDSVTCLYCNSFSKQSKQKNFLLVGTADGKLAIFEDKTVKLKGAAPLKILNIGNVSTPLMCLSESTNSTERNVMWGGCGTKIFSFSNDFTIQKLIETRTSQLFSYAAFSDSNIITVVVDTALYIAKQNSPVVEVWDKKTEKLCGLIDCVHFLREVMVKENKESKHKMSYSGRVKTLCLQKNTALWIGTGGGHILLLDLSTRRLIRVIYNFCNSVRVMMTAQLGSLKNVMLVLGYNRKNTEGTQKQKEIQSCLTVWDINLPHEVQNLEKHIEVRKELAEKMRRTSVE
T1 sequence (Q5S006 whole entry): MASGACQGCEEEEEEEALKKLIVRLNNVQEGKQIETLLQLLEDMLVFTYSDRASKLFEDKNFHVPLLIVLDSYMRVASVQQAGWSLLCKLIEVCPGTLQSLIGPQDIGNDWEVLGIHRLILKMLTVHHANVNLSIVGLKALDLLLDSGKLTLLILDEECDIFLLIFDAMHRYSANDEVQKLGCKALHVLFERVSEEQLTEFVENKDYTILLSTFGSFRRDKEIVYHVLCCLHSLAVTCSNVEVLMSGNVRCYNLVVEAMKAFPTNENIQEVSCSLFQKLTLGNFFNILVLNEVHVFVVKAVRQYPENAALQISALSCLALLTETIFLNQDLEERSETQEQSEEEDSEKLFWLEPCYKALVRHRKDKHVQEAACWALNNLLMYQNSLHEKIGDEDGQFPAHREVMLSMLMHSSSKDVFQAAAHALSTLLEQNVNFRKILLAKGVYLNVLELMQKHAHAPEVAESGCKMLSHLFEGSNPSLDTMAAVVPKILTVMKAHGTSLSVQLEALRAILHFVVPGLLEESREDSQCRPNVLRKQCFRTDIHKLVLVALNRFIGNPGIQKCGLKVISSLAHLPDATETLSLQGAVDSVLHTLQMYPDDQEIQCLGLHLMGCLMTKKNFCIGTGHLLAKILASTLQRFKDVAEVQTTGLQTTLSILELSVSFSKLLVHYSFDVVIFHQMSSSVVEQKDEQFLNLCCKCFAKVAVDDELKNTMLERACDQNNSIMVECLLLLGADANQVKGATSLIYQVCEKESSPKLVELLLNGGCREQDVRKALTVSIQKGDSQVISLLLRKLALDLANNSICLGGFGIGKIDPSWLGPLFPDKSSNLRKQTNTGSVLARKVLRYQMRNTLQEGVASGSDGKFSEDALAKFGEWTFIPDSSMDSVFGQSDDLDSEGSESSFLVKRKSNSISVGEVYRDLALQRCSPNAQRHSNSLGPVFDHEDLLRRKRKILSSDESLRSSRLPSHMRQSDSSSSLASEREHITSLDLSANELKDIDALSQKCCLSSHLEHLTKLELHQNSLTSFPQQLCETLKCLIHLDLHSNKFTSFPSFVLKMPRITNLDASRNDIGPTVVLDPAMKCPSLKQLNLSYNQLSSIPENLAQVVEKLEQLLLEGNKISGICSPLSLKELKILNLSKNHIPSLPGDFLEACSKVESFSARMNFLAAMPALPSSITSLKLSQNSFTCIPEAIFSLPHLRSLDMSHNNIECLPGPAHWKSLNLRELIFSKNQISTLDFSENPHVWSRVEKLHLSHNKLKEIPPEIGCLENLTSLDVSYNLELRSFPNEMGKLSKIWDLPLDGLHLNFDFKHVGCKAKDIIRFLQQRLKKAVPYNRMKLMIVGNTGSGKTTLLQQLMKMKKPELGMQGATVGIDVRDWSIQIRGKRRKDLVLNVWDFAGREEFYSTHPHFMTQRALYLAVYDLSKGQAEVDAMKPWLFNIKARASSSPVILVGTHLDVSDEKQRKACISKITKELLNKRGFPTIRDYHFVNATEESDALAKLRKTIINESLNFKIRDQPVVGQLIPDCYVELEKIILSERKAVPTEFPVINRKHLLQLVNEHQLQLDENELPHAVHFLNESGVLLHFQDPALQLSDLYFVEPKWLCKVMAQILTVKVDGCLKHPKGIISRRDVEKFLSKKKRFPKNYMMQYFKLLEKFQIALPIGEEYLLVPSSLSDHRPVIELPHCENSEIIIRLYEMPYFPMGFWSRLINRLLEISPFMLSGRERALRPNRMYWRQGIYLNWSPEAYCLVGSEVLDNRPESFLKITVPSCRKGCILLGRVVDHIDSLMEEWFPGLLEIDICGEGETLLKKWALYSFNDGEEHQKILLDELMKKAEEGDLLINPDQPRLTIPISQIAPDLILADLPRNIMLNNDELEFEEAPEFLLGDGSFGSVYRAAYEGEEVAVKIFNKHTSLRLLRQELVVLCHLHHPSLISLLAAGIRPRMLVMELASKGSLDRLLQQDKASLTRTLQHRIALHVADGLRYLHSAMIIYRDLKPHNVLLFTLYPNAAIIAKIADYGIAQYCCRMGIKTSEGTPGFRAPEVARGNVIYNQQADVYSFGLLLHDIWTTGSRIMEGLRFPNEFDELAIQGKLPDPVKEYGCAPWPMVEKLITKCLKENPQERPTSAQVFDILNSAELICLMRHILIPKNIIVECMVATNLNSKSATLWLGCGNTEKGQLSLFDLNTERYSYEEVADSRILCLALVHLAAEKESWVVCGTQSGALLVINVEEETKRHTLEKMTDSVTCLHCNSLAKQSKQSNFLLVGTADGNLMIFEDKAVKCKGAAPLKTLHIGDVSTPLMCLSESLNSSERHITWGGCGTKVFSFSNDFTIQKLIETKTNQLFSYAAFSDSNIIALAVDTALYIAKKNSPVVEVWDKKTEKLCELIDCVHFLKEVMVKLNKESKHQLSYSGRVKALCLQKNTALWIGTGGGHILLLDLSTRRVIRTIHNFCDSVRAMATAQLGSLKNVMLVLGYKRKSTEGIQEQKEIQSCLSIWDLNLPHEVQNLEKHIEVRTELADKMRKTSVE
Procedure for human LRRK2 kinase: Assay kits from Promega™ Corporation were used according to instructions and adapted as outlined herein. […] The kinase reaction was performed with kinase reaction buffer (40 mM Tris base pH 7.4, 20 mM MgCl2, 0.5 mM dithiothreitol), 0.1 mg/ml bovine serum albumin, distilled H2O). […] In brief, the kinase reactions were started by addition of ATP to the kinase reaction mixture. The resulting mixture was incubated for 60 minutes at 25° C., and then stopped by adding 5 μl of ADP-Glo™ reagent. After incubation at room temperature in the dark for 40 minutes, 10 μl of kinase detection reagent was added per well, and the mixture was incubated for 10 minutes. […] Positive and negative controls were performed in 0.5% DMSO in the presence and absence of LRRK2 kinases. Curve fitting and data presentations were performed using GraphPad Prism version 5.0 (GraphPad Software, Inc.).

On to `CCCNc1nc(Nc2ccc(S(=O)(=O)N3CCC(N4CCOCC4)CC3)cc2OC)nc2[nH]cc(Cl)c12` [Compound 19, 5-chloro-N2-(2-methoxy-4-((4-morpholinopiperidin-1-yl)sulfonyl)phenyl)-N4-propyl-7H-pyrrolo[2,3-d]pyrimidine-2,4-diamine], for which the IC50 against human LRRK2 kinase fell in the range of 100 to 1000 nM. At wild-type LRKK2, the “inhibition of the phosphorylation of Ser935 in wild-type LRKK2” value is listed as “inhibited the phosphorylation of Ser935 in wild-type LRKK2 with potency similar to known LRRK2 inhibitor LRRK2-IN-1”.
